{
  "source": "patent US20170290783A1",
  "about": "“Rabbit Maternal Pheromones to Enhance the Weight of Weaning Piglets” (Animal Biotech, LLC, priority 2016, published 2017)",
  "key": {"[1]": {"test_system": "re-grouped, stressed pigs", "details": "cited from earlier work"}, "weaning piglets": {"test_system": "weaning piglets", "assay": "Post-weaning piglet performance (body weight, ADG, ADFI, G:F) after a single application of rabbit maternal pheromone to the nursery feeder", "type": "in vivo, pig", "text": "Piglets (n=120) were randomly selected from nursing sows. A total of 120 piglets, 60 males and 60 females, were weaned at approximately 3 weeks of age and transported for four hours before entering the nursery site. Piglets were housed in groups of three, single-sex (either barrows or gilts), and had ad libitum access to feed and water. A total of 40 pens (the experimental unit) were available; 10 each of male and female experiencing control or pheromone therapy. Space allowance was in excess of industry standards (0.6 m^2 per piglet). Body weight and feed intake were each measured once per week from commencement of weaning until 35 days after weaning.\nControl and pheromone-treated piglets were housed in separate rooms, with no airflow between the rooms to ensure no cross contamination between air spaces. To expose piglets to the rabbit maternal pheromone, test piglet feeders received 25 mL of the trans-2-methyl-2-butenal solution (1 μg/mL in isopropyl alcohol) while the control piglet feeders received 25 mL of isopropyl alcohol only. Feeders were sprayed immediately before the arrival of piglets to the nursery site.\nHalf of the pigs and pens in each group were transported and half were moved directly from the farrowing crates to the adjacent nursery building. The experimental design was a completely random design with a two by two factorial arrangement of transport (or not) and trans-2-methyl-2-butenal or placebo control.\nAverage daily gain (ADG, kg. per day) was calculated from the body weights both weekly and over the entire period. Average daily feed intake (ADFI, kg. per pig per day) was calculated based on weekly feed consumption. Gain to Feed (G:F) was calculated each week and over the 28-day post-weaning period.\nData were analyzed using SAS software (SAS, 2012). PROC Univariate was used to establish that the overall ADG, ADFI and G:F ratio data were normally distributed. The general linear models procedure was used with pen as the experimental unit. There were 40 experimental units (pens) in total. The original model contained the factorial effects of (A) trans-2-methyl-2-butenal applied during transport or not, (B) trans-2-methyl-2-butenal applied to the nursery feeder or not, and (3) pig sex (barrow vs. gilt) and all possible interactions. […] A final simplified analysis was performed with only the effects of trans-2-methyl-2-butenal applied in the nursery or not with 20 pens per treatment."}},
  "data": [
    {"smiles": "C[C@]12CCC(=O)C[C@@H]1CC[C@@H]1[C@@H]2CC[C@]2(C)C=CC[C@@H]12", "note": "[Androstenone]", "values": [
      {"measurement": "Pig aggressive behaviors", "setting": "[1]; pig, in vivo", "value": "reduced"},
      {"measurement": "Weight gain", "setting": "[1]; re-grouped, stressed pigs", "value": "temporarily improve"}
    ]},
    {"smiles": "C/C=C(\\C)C=O", "note": "[trans-2-methyl-2-butenal]", "values": [
      {"measurement": "Piglet body weight vs control", "setting": "weaning piglets; 14 days after weaning", "value": "tended (P=0.06) to be heavier"},
      {"measurement": "G:F (gain to feed)", "setting": "weaning piglets; P>0.10 vs control", "value": "not influenced"},
      {"measurement": "Piglet body weight vs control", "setting": "weaning piglets; at weaning and 7 days later, 25 mL of 1 μg/mL in isopropyl alcohol sprayed on feeder", "value": "statistically similar"},
      {"measurement": "Body weight at weaning", "setting": "weaning piglets; at weaning, pigs to experience treatment, control 6.5±0.06 kg, P>0.10", "value": "6.6 ± 0.025", "unit": "kg"},
      {"measurement": "Overall ADG (average daily gain)", "setting": "weaning piglets; both the 4 and 5 week period after weaning, P<0.05 vs control", "value": "increase"},
      {"measurement": "Piglet body weight vs control", "setting": "weaning piglets; days 21, 28 and 35 after weaning, P<0.05", "value": "significantly heavier"},
      {"measurement": "ADFI (average daily feed intake)", "setting": "weaning piglets; during 4 weeks after weaning, P<0.05 vs control", "value": "increase"},
      {"measurement": "Stimulatory effect on feed intake", "setting": "weaning piglets; first week after weaning", "value": "very small (and not significant)"},
      {"measurement": "Improvement in body weight vs control", "setting": "weaning piglets; five weeks after weaning, P=0.01", "value": 8.5, "unit": "%"},
      {"measurement": "Body weight five weeks after weaning", "setting": "weaning piglets; five weeks after weaning, control 16.5±0.31 kg, P=0.01", "value": "17.9 ± 0.31", "unit": "kg"},
      {"measurement": "ADFI and ADG", "setting": "weaning piglets; single application to the feeder in the post-weaning environment", "value": "stimulate"},
      {"measurement": "Overall performance measures, effect of application during transport", "setting": "weaning piglets; transport application, P>0.10", "value": "not significant"},
      {"measurement": "Post-weaning ADG", "setting": "weaning piglets; weeks 3, 5 and overall, P<0.05", "value": "increased"},
      {"measurement": "ADFI", "setting": "weaning piglets; weeks 3 and 4 after weaning and overall 5-week growth period, P<0.05", "value": "higher"},
      {"measurement": "Stimulatory effect on feed intake", "setting": "weaning piglets; weeks two to five after weaning", "value": "increases in magnitude"}
    ]}
  ]
}
